# Source: patent US8481679B2, “Immobilizing an entity in a desired orientation on a support material” (Arizona Board of Regents Acting on behalf of Arizona State …, priority 2007, dated 2013)
# Experiments:
# carbonic anhydrase [1] = assay: Corning Epic binding of carbonic anhydrase to wells pre-coated with attachment peptides; conditions: carbonic anhydrase at 1 μM; 30 and 180 minute incubation
# Excerpt: The selected candidate peptides were applied to the wells of a Corning Epic System 384-well microplate by linking the C-terminal cysteines of the peptides to surface amines of the Epic microplate wells via the maleimide and amine moieties, respectively, of a BMPH linker (Pierce). The immobilization of the peptides to the Epic microplate wells without carbonic anhydrase was first evaluated to identify any peptides binding poorly to the well surface, and to provide a basis for computing the maximum wavelength shift theoretically obtainable with optimal binding of the carbonic anhydrase to the peptides at a concentration sufficient to saturate. […] This could reflect inadequate binding to the surface due to poor solubility of the poorly binding peptides.
# Carbonic anhydrase was applied in Epic microplate wells in which the selected peptides had been pre-applied to the well surface, in groups of four replicate wells and in carbonic anhydrase concentrations ranging from 31 nM to 1 μM. Observed wavelength shifts after 30 minute incubation of the indicated concentrations of carbonic anhydrase with peptides CA4, CA8, CA9, CA10, CA11, and CA12 are shown in FIG. 7(a).
# carbonic anhydrase [2] = assay: Corning Epic binding of dansylamide to carbonic anhydrase immobilized by attachment peptides; conditions: 1 μM dansylamide; six carbonic anhydrase concentrations, four replicates each; nearly all replicates
# Procedure: Dansylamide, a known inhibitor of carbonic anhydrase, was applied to a range of concentrations (31 nM to 1 μM) of carbonic anhydrase immobilized in Epic wells by peptides CA4, CA8, CA9, CA10, CA11, and CA12. […] Wavelength shifts on the order of approximately 10 to 20 pm were observed upon application of the dansylamide to carbonic anhydrase immobilized at 1 μM concentration on peptides CA4, CA8, and CA11, confirming that the carbonic anhydrase was immobilized in an orientation that preserved the availability of the binding site (active site) and ability of the enzyme to consistently bind the inhibitor dansylamide, and confirming that the attachment peptides were able to immobilize carbonic anhydrase in the wells of an Epic plate in a manner such that binding of dansylamide to the carbonic anhydrase was readily detectable by the Epic technology.
# For nearly all replicates, a shift on the order of 20 pm was observed upon application of the dansylamide.
# beta-galactosidase = beta-galactosidase (Escherichia coli, UniProt P00722); conditions: 50 nM beta-galactosidase, 5 μM FDG, 0.5 hour preincubation; selected peptide at 2, 10, 50, 100 μM
# Sequence of beta-galactosidase (P00722 2-1024): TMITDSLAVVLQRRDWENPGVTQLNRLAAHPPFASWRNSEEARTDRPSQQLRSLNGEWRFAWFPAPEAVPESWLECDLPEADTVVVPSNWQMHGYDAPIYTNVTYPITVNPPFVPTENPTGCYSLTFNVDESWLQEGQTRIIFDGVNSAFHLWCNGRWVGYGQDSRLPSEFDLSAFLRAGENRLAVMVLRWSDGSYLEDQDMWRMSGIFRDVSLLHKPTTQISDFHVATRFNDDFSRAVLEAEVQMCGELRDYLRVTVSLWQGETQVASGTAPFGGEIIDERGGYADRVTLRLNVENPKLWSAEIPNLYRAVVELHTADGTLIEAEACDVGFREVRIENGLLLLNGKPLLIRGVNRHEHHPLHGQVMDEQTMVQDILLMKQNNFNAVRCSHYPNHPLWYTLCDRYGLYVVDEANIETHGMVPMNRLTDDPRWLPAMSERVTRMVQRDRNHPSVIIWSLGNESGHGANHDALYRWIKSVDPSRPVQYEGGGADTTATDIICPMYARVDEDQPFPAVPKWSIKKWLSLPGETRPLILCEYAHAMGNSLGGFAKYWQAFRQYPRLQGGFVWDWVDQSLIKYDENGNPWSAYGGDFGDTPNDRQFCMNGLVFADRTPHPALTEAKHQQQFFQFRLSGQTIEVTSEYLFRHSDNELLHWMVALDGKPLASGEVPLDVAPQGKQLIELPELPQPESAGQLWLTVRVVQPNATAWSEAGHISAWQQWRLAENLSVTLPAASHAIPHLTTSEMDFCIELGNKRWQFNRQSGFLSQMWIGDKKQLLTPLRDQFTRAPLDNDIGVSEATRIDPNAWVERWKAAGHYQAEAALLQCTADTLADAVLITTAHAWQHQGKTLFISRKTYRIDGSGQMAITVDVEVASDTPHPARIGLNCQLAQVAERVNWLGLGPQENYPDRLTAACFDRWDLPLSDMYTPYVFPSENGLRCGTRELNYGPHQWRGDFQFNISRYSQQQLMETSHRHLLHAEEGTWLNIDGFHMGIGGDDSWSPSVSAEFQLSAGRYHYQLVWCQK
# Procedure: The enzyme activity of the entity beta-galactosidase when bound to the selected peptide having the sequence […] (SEQ ID NO. 2), was evaluated in solution phase by preincubating varying concentrations of the peptide with beta-galactosidase for 0.5 hour, then adding substrate FDG in solution and measuring 520 nm fluorescence upon 488 nm excitation at a series of time points.
# [3] = tested on: T1, selected peptide having the sequence FRNFPVPVIFRYLNPWPGSC (SEQ ID NO. 2)
# T1 sequence: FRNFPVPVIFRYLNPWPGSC
# [4] = tested on: T2, comparison attachment peptide (sequence ESVPTDLPMDTMEGKNWGSC (SEQ ID NO. 14))
# T2 sequence: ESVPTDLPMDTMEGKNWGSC
Substance,wavelength shift on binding of carbonic anhydrase to peptide (carbonic anhydrase [1]),other results
"CA4: 20-residue candidate attachment peptide for carbonic anhydrase, C-terminal glycine-serine-cysteine; sequence only in FIG. 6A (HWHHRWWHHWKHPHHWRGSC; CA4 (Carbonic Anhydrase Peptide 4))",wavelength shifts which persisted even after 180 minutes incubation,–
"CA8: 20-residue candidate attachment peptide for carbonic anhydrase, C-terminal glycine-serine-cysteine; sequence only in FIG. 6A (RHWKWHWWRRHHPHHWFGSC; CA8 (Carbonic Anhydrase Peptide 8))",wavelength shifts which persisted even after 180 minutes incubation,–
"CA9: 20-residue candidate attachment peptide for carbonic anhydrase, C-terminal glycine-serine-cysteine; sequence only in FIG. 6A (RVFKRYKRWLHVSRYYFGSC; CA9 (Carbonic Anhydrase Peptide 9))",wavelength shifts which persisted even after 180 minutes incubation,–
"CA11: 20-residue candidate attachment peptide for carbonic anhydrase, C-terminal glycine-serine-cysteine; sequence only in FIG. 6A (IEDTYLRFRHYGWYNNNGSC; CA11 (Carbonic Anhydrase Peptide 11))",wavelength shifts which persisted even after 180 minutes incubation,wavelength shift upon application of dansylamide (time course) (carbonic anhydrase [2]): ~20 pm
"CA12: 20-residue candidate attachment peptide for carbonic anhydrase, C-terminal glycine-serine-cysteine; sequence only in FIG. 6A (SIGIYGHAIARPGGWYFGSC; CA12 (Carbonic Anhydrase Peptide 12))",wavelength shifts which persisted even after 180 minutes incubation,–
ESVPTDLPMDTMEGKNWGSC [SEQ ID NO. 14],–,520 nm fluorescence intensity (beta-galactosidase activity) relative to beta-galactosidase alone (beta-galactosidase): slightly higher than for beta-galactosidase alone
FRNFPVPVIFRYLNPWPGSC [SEQ ID NO. 2],–,520 nm fluorescence intensity (beta-galactosidase activity) relative to beta-galactosidase alone (beta-galactosidase): significantly lower than that for beta-galactosidase alone
beta-galactosidase,–,"520 nm fluorescence intensity (FDG hydrolysis by beta-galactosidase, solution phase; peptide at 2, 10, 50 and 100 µM) [3]: at all concentrations was significantly lower than that for beta-galactosidase alone; 520 nm fluorescence intensity (FDG hydrolysis by beta-galactosidase, solution phase) [4]: slightly higher than for beta-galactosidase alone"
